This passage reports IC50 results from patent US11661426B2, “Imidazole-containing inhibitors of ALK2 kinase” (BioCryst Pharmaceuticals, Inc., priority 2017, dated 2023).

Chain of ALK2 (Q04771 21-509): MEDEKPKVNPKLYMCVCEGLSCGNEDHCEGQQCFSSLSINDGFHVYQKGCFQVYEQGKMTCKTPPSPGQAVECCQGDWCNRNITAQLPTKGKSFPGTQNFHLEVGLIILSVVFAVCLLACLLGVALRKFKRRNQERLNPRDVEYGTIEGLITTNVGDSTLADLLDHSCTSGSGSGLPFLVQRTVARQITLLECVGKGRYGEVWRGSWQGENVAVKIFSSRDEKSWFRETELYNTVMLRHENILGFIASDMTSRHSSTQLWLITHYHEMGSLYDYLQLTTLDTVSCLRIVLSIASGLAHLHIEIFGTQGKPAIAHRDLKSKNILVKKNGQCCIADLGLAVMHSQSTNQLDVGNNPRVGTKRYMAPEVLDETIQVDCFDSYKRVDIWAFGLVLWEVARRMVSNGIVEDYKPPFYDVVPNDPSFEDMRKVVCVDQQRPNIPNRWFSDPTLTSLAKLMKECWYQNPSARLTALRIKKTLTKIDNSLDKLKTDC

This assay has as its target ALK2 (Homo sapiens (Human), UniProt Q04771). The assay is described as follows: ALK2 inhibition, LanthaScreen Eu Kinase Binding Assay (ThermoFisher Scientific / Life Technologies). The settings on record: read-out: Measured Ki (IC50) Value for Compounds: IC50. The protocol:
Biochemical assays to measure the inhibitory effects of the compounds were performed by ThermoFisher Scientific (Life Technologies). ALK2 inhibition was tested using LanthaScreen™ Eu Kinase Binding Assay screening protocol.
Background: Time-resolved FRET reads energy transfer from a long-lived donor to a nearby acceptor.
A word on the IC50: it is the concentration needed to halve the response being measured. As for `COc1cc(-n2cnc(Nc3nc(N4CCC[C@H]4CO)nn4cccc34)c2)cc(C(N)=O)c1O` [Compound 268b, (S)-2-hydroxy-5-(4-((2-(2-(hydroxymethyl)pyrrolidin-1-yl)pyrrolo[2,1-f][1,2,4]triazin-4-yl)amino)-1H-imidazol-1-yl)-3-methoxybenzamide], the IC50 was below 100 nM.
In the case of `COc1cc(-n2cnc(Nc3nc(N4CCC[C@H]4CO)nc4cc(F)ccc34)c2)cc(OC)c1OC` [Compound 269a, (S)-(1-(7-fluoro-4-((1-(3,4,5-trimethoxyphenyl)-1H-imidazol-4-yl)amino)quinazolin-2-yl)pyrrolidin-2-yl)methanol] it was below 100 nM.
In the case of `COc1cc(-n2cnc(Nc3nc(N4CCC[C@H]4CO)nc4cc(N5CCC[C@H]5CO)ccc34)c2)cc(OC)c1OC` [Compound 269b, ((2S,2′S)-1,1′-(4-((1-(3,4,5-trimethoxyphenyl)-1H-imidazol-4-yl)amino)quinazoline-2,7-diyl)bis(pyrrolidine-2,1-diyl))dimethanol] it was below 100 nM; in that of `COc1cc(-n2cnc(Nc3nc(N4C(=O)CC[C@H]4CO)nc4ccoc34)c2)cc(OC)c1OC` [Compound 270a, (S)-5-(hydroxymethyl)-1-(4-((1-(3,4,5-trimethoxyphenyl)-1H-imidazol-4-yl)amino)furo[3,2-d]pyrimidin-2-yl)pyrrolidin-2-one], below 100 nM.
In the case of `COc1cc(-n2cnc(Nc3nc4c(c(N5CCC[C@H]5CO)n3)CCC4)c2)cc(OC)c1OC` [Compound 271c, (S)-(1-(2-((1-(3,4,5-trimethoxyphenyl)-1H-imidazol-4-yl)amino)-6,7-dihydro-5H-cyclopenta[d]pyrimidin-4-yl)pyrrolidin-2-yl)methanol] it was below 100 nM; in that of `COc1cc(-n2cnc(Nc3nc4c(c(N5CCC[C@@H]5CO)n3)CCC4)c2)cc(OC)c1OC` [Compound 272b, (R)-(1-(2-((1-(3,4,5-trimethoxyphenyl)-1H-imidazol-4-yl)amino)-6,7-dihydro-5H-cyclopenta[d]pyrimidin-4-yl)pyrrolidin-2-yl)methanol], below 100 nM.
With `COc1cc(-n2cnc(Nc3nc4c(c(N5CCC[C@H]5CO)n3)CS(=O)(=O)CC4)c2)cc(OC)c1OC` [Compound 273c, (S)-4-(2-(hydroxymethyl)pyrrolidin-1-yl)-2-((1-(3,4,5-trimethoxyphenyl)-1H-imidazol-4-yl)amino)-7,8-dihydro-5H-thiopyrano[4,3-d]pyrimidine 6,6-dioxide], the IC50 was below 100 nM.
Then `COc1cc(-n2cnc(Nc3nc(N4CCC[C@H]4CO)nc4c3CN(C(C)C)C4=O)c2)cc(OC)c1OC` [Compound 274c, (S)-2-(2-(hydroxymethyl)pyrrolidin-1-yl)-6-isopropyl-4-((1-(3,4,5-trimethoxyphenyl)-1H-imidazol-4-yl)amino)-5H-pyrrolo[3,4-d]pyrimidin-7(6H)-one], with below 100 nM; and `COc1cc(-n2cnc(Nc3nc(N4CCC[C@@H]4CO)nc4c3CN(C(C)C)C4=O)c2)cc(OC)c1OC` [Compound 275a, (R)-2-(2-(hydroxymethyl)pyrrolidin-1-yl)-6-isopropyl-4-((1-(3,4,5-trimethoxyphenyl)-1H-imidazol-4-yl)amino)-5H-pyrrolo[3,4-d]pyrimidin-7(6H)-one], with below 100 nM; and `COc1cc(-n2cnc(Nc3nc(N4CCC[C@H]4CO)c4ccc(F)cc4n3)c2)cc(OC)c1OC` [Compound 276b, (S)-(1-(7-fluoro-2-((1-(3,4,5-trimethoxyphenyl)-1H-imidazol-4-yl)amino)quinazolin-4-yl)pyrrolidin-2-yl)methanol], with below 100 nM.
In the case of `COc1cc(-n2cnc(Nc3nc(N4CCC[C@@H]4C(N)=O)nc4cc(OC(C)C)ccc34)c2)cc(OC)c1OC` [Compound 277a, (R)-1-(7-isopropoxy-4-((1-(3,4,5-trimethoxyphenyl)-1H-imidazol-4-yl)amino)quinazolin-2-yl)pyrrolidine-2-carboxamide] it was below 100 nM; in that of `COc1cc(-n2cnc(Nc3nc(N4CCC[C@@H]4CO)c4ccc(OC(C)C)cc4n3)c2)cc(OC)c1OC` [Compound 278b, (R)-(1-(7-isopropoxy-2-((1-(3,4,5-trimethoxyphenyl)-1H-imidazol-4-yl)amino)quinazolin-4-yl)pyrrolidin-2-yl)methanol], below 100 nM; in that of `COc1cc(-n2cnc(Nc3nc4c(c(N5CCC[C@H]5CO)n3)COC4)c2)cc(OC)c1OC` [Compound 279c, (S)-(1-(2-((1-(3,4,5-trimethoxyphenyl)-1H-imidazol-4-yl)amino)-5,7-dihydrofuro[3,4-d]pyrimidin-4-yl)pyrrolidin-2-yl)methanol], below 100 nM.
As to `COc1cc(-n2cnc(Nc3nc4c(c(N5CCC[C@@H]5CO)n3)COC4)c2)cc(OC)c1OC` [Compound 280b, (R)-(1-(2-((1-(3,4,5-trimethoxyphenyl)-1H-imidazol-4-yl)amino)-5,7-dihydrofuro[3,4-d]pyrimidin-4-yl)pyrrolidin-2-yl)methanol], the IC50 was below 100 nM.
Then `COc1cc(-n2cnc(Nc3nc(N4CCC[C@H]4CO)nc4c3COC4)c2)cc(OC)c1OC` [Compound 281b, (S)-(1-(4-((1-(3,4,5-trimethoxyphenyl)-1H-imidazol-4-yl)amino)-5,7-dihydrofuro[3,4-d]pyrimidin-2-yl)pyrrolidin-2-yl)methanol], with below 100 nM.
With `COc1cc(-n2cnc(Nc3nc(N4CCC[C@@H]4CO)nc4c3COC4)c2)cc(OC)c1OC` [Compound 282a, (R)-(1-(4-((1-(3,4,5-trimethoxyphenyl)-1H-imidazol-4-yl)amino)-5,7-dihydrofuro[3,4-d]pyrimidin-2-yl)pyrrolidin-2-yl)methanol], the half-inhibitory concentration (IC50) was below 100 nM.
In the case of `COc1cc(-n2cnc(Nc3nc(N4CC[C@@H](CO)C4)c4cccn4n3)c2)cc(OC)c1OC` [Compound 283b, (R)-(1-(2-(1-(3,4,5-trimethoxyphenyl)-1H-imidazol-4-ylamino)pyrrolo[1,2-f][1,2,4]triazin-4-yl)pyrrolidin-3-yl)methanol] it was below 100 nM; in that of `COc1cc(-n2cnc(Nc3nc(N4CCC[C@H]4CO)nc4cc(C(F)(F)F)ccc34)c2)cc(OC)c1OC` [Compound 284c, (S)-(1-(7-(trifluoromethyl)-4-((1-(3,4,5-trimethoxyphenyl)-1H-imidazol-4-yl)amino)quinazolin-2-yl)pyrrolidin-2-yl)methanol], below 100 nM.
Regarding `COc1cc(-n2cnc(Nc3nc(N4CCC[C@H]4C(N)=O)nc4cc(C(F)(F)F)ccc34)c2)cc(OC)c1OC` [Compound 285a, (S)-1-(7-(trifluoromethyl)-4-((1-(3,4,5-trimethoxyphenyl)-1H-imidazol-4-yl)amino)quinazolin-2-yl)pyrrolidine-2-carboxamide], the IC50 was below 100 nM.
In the case of `COc1cc(-n2cnc(Nc3nc(N4CCC[C@H]4CO)c4ccc(C(F)(F)F)cc4n3)c2)cc(OC)c1OC` [Compound 286b, (S)-(1-(7-(trifluoromethyl)-2-((1-(3,4,5-trimethoxyphenyl)-1H-imidazol-4-yl)amino)quinazolin-4-yl)pyrrolidin-2-yl)methanol] it was below 100 nM.
On to `COc1cc(-n2cnc(Nc3nc(N4CCC[C@@H]4C(N)=O)nc4cc(C(F)(F)F)ccc34)c2)cc(OC)c1OC` [Compound 287a, (R)-1-(7-(trifluoromethyl)-4-((1-(3,4,5-trimethoxyphenyl)-1H-imidazol-4-yl)amino)quinazolin-2-yl)pyrrolidine-2-carboxamide], for which the IC50 was below 100 nM.
In the case of `COc1cc(-n2cnc(Nc3nc(N4CCC[C@@H]4C(N)=O)nc4cc(F)ccc34)c2)cc(OC)c1OC` [Compound 288a, (R)-1-(7-fluoro-4-((1-(3,4,5-trimethoxyphenyl)-1H-imidazol-4-yl)amino)quinazolin-2-yl)pyrrolidine-2-carboxamide], the 50% inhibitory concentration (IC50) is below 100 nM.
Then `COc1cc(-n2cnc(Nc3nc(N4CCC[C@H]4CO)nc4c3CCC4)c2)cc(OC)c1OC` [Compound 289b, (S)-(1-(4-((1-(3,4,5-trimethoxyphenyl)-1H-imidazol-4-yl)amino)-6,7-dihydro-5H-cyclopenta[d]pyrimidin-2-yl)pyrrolidin-2-yl)methanol], with below 100 nM.
As for `COc1cc(-n2cnc(Nc3nc(N4CCC[C@@H]4CO)nc4c3CCC4)c2)cc(OC)c1OC` [Compound 290a, (R)-(1-(4-((1-(3,4,5-trimethoxyphenyl)-1H-imidazol-4-yl)amino)-6,7-dihydro-5H-cyclopenta[d]pyrimidin-2-yl)pyrrolidin-2-yl)methanol], the IC50 was below 100 nM.
For `COc1cc(-n2cnc(Nc3nc(N4CCC[C@@H]4C(N)=O)nc4c3CCC4)c2)cc(OC)c1OC` [Compound 291a, (R)-1-(4-((1-(3,4,5-trimethoxyphenyl)-1H-imidazol-4-yl)amino)-6,7-dihydro-5H-cyclopenta[d]pyrimidin-2-yl)pyrrolidine-2-carboxamide], the IC50 was below 100 nM.
As for `COc1cc(-n2cnc(Nc3nc(N4CCC[C@H]4C(N)=O)nc4c3CCC4)c2)cc(OC)c1OC` [Compound 292a, (S)-1-(4-((1-(3,4,5-trimethoxyphenyl)-1H-imidazol-4-yl)amino)-6,7-dihydro-5H-cyclopenta[d]pyrimidin-2-yl)pyrrolidine-2-carboxamide], the 50% inhibitory concentration (IC50) is below 100 nM.
In the case of `COc1cc(-n2cnc(Nc3nc(N4CCC[C@@H]4CO)nc4cc(C(F)(F)F)ccc34)c2)cc(OC)c1OC` [Compound 293a, (R)-(1-(7-(trifluoromethyl)-4-((1-(3,4,5-trimethoxyphenyl)-1H-imidazol-4-yl)amino)quinazolin-2-yl)pyrrolidin-2-yl)methanol] it was below 100 nM; in that of `COc1cc(-n2cnc(Nc3nc(N4CCC[C@@H]4CO)nc4ccoc34)c2)cc(OC)c1OC` [Compound 294a, (R)-(1-(4-((1-(3,4,5-trimethoxyphenyl)-1H-imidazol-4-yl)amino)furo[3,2-d]pyrimidin-2-yl)pyrrolidin-2-yl)methanol], below 100 nM; in that of `COc1cc(-n2cnc(Nc3nc(N4CCC[C@@H]4CO)nc4c3CCCC4)c2)cc(OC)c1OC` [Compound 295b, (R)-(1-(4-((1-(3,4,5-trimethoxyphenyl)-1H-imidazol-4-yl)amino)-5,6,7,8-tetrahydroquinazolin-2-yl)pyrrolidin-2-yl)methanol], below 100 nM.
